Measured values as given in patent US20120283216A1, “FUNGICIDAL 2-(BICYCLIC ARYLOXY)CARBOXAMIDES” (priority 2009, published 2012).

Legend:
Format in all cases: in vivo
[1] = test system: Botrytis cinerea; test: Test C: tomato botrytis, preventive spray on tomato seedlings, visual disease rating; details: preventive spray at 40 ppm, rated after 48 h + 3 days; for pest or weed control at 40 ppm: Botrytis cinerea, 120 h, read-out: Test C disease control rating (100 = 100% disease control, 0 = no disease control relative to the controls)
Source text: General protocol for preparing test suspensions for Tests A-C: the test compounds were first dissolved in acetone in an amount equal to 11% of the final volume and then suspended at the desired concentration (in ppm) in acetone and purified water (50/50 mix by volume) containing 250 ppm of the surfactant Trem® 014 (polyhydric alcohol esters). The resulting test suspensions were then used in Tests A-C. Spraying a 40 ppm test suspension to the point of run-off on the test plants was the equivalent of a rate of 800 g/ha.
The test suspension was sprayed to the point of run-off on tomato seedlings. The following day the seedlings were inoculated with a spore suspension of Botrytis cinerea (the causal agent of tomato botrytis) and incubated in saturated atmosphere at 20° C. for 48 h, and then moved to a growth chamber at 27° C. for 3 additional days, after which time disease ratings were visually made.
Results for Tests A-C are given in Table A. In the Table, a rating of 100 indicates 100% disease control and a rating of 0 indicates no disease control (relative to the controls). A dash (-) indicates no test results. All results are from applications of 40 ppm.

[2] = test system: Septoria tritici; test: Test B: wheat leaf blotch, preventive spray on wheat seedlings, visual disease rating; details: preventive spray at 40 ppm, rated after 48 h + 19 days; for pest or weed control at 40 ppm: Zymoseptoria tritici, 504 h, read-out: Test B disease control rating (100 = 100% disease control, 0 = no disease control relative to the controls)
Source text: (§1) General protocol for preparing test suspensions for Tests A-C: the test compounds were first dissolved in acetone in an amount equal to 11% of the final volume and then suspended at the desired concentration (in ppm) in acetone and purified water (50/50 mix by volume) containing 250 ppm of the surfactant Trem® 014 (polyhydric alcohol esters). The resulting test suspensions were then used in Tests A-C. Spraying a 40 ppm test suspension to the point of run-off on the test plants was the equivalent of a rate of 800 g/ha. The test suspension was sprayed to the point of run-off on wheat seedlings. The following day the seedlings were inoculated with a spore suspension of Septoria tritici (the causal agent of wheat leaf blotch) and incubated in a saturated atmosphere at 20° C. for 48 h, and then moved to a growth chamber at 20° C. for 19 days, after which time disease ratings were visually made. Results for Tests A-C are given in Table A. In the Table, a rating of 100 indicates 100% disease control and a rating of 0 indicates no disease control (relative to the controls). A dash (-) indicates no test results. All results are from applications of 40 ppm.

[3] = test system: Blumeria graminis f. sp. tritici; test: Test A: wheat powdery mildew, preventive spray on wheat seedlings, visual disease rating; details: preventive spray at 40 ppm, rated 8 days after inoculation; for pest or weed control at 40 ppm: Blumeria graminis, 192 h, read-out: Test A disease control rating (100 = 100% disease control, 0 = no disease control relative to the controls)
Source text: as §1, with “spore dust” for “spore suspension”, “of Blumeria graminis f. sp. tritici,” for “of Septoria tritici”, “wheat powdery mildew)” for “wheat leaf blotch)”, “in” for “in a saturated atmosphere at 20° C. for 48 h, and then moved to”, “for 8” for “for 19”

| SMILES | Test C disease control rating (100 = 100% disease control, 0 = no disease control relative to the controls) [1] | Test B disease control rating (100 = 100% disease control, 0 = no disease control relative to the controls) [2] | Test A disease control rating (100 = 100% disease control, 0 = no disease control relative to the controls) [3] | pest or weed control at 40 ppm [1] | pest or weed control at 40 ppm [2] | pest or weed control at 40 ppm [3] |
| --- | --- | --- | --- | --- | --- | --- |
| CCC(Oc1ccc2ccc(Br)cc2c1)C(=O)NC(C)(C)C1CO1 (stereo not drawn) [Compound 19] | 98% | 60% | 0% | – | – | – |
| CCC(Oc1ccc2ccc(Br)cc2c1)C(=O)NC(C)(C)COCOC (stereo not drawn) [Compound 20, 2-[(7-bromo-2-naphthalenyl)oxy]-N-[2-(methoxymethoxy)-1,1-dimethylethyl]butanamide] | – | – | – | 98% | 99% | 98% |
| CCC(Oc1ccc2ccc(C#N)cc2c1)C(=O)NC(C)(C)COC (stereo not drawn) [Compound 21] | 99% | 99% | 91% | – | – | – |
| CCC(Oc1ccc2ccc(C#N)cc2c1)C(=O)NC(C)(C)COCOC (stereo not drawn) [Compound 22, 2-[(7-cyano-2-naphthalenyl)oxy]-N-[2-(methoxymethoxy)-1,1-dimethylethyl]butanamide] | – | – | – | 100% | 100% | 93% |
| COCC(C)(C)NC(=O)C(C)Oc1ccc2ccc(Br)cc2c1 (stereo not drawn) [Compound 24, 2-[(7-bromo-2-naphthalenyl)oxy]-N-(2-methoxy-1,1-dimethylethyl)propanamide] | – | – | – | 98% | 100% | 100% |
| COCC(C)(C)NC(=O)C(C)Oc1ccc2ccc(C#N)cc2c1 (stereo not drawn) [Compound 25] | 99% | 96% | 47% | – | – | – |
| CCC(Oc1ccc2ccc(Br)cc2c1)C(=O)NC(C)(C)CF (stereo not drawn) [Compound 26, 2-[(7-bromo-2-naphthalenyl)oxy]-N-(2-fluoro-1,1-dimethylethyl)butanamide] | – | – | – | 99% | 100% | 100% |
| CCC(Oc1ccc2ccc(Br)cc2c1)C(=O)NC(C)(C)C(F)(F)F (stereo not drawn) [Compound 27] | 98% | 86% | 99% | – | – | – |
| CCC(Oc1ccc2ccc(Br)cc2c1)C(=O)NC(C)(C)CSC(C)=O (stereo not drawn) [Compound 28] | 99% | 99% | 91% | – | – | – |
| CCC(Oc1ccc2ccc(N)cc2c1)C(=O)NC(C)(C)C (stereo not drawn) [Compound 29] | – | – | – | 95% | 76% | 0% |
| CC(=O)C(Oc1ccc2ccc(Br)cc2c1)C(=O)NC(C)(C)C (stereo not drawn) [Compound 32] | – | – | – | 26% | 0% | 0% |
| CCC(Oc1ccc2ccc(C#N)cc2c1)C(=O)NC(C)(C)C (stereo not drawn) [Compound 33] | – | – | – | 95% | 99% | 62% |
| COCC(Oc1cnc2ccc(Br)cc2c1)C(=O)NC(C)(C)C (stereo not drawn) [Compound 34] | 94% | 92% | 0% | – | – | – |
| C#CC(C)(C)NC(=O)C(COC)Oc1cnc2ccc(Br)cc2c1 (stereo not drawn) [Compound 36] | 36% | 89% | 0% | – | – | – |
| CCC(Oc1cnc2ccc(Br)cc2c1)C(=O)NC(C)(C)C (stereo not drawn) [Compound 37, 2-[(6-bromo-3-quinolinyl)oxy]-N-(1,1-dimethylethyl)butanamide] | – | – | – | 99% | 100% | 89% |
| C#CC(C)(C)NC(=O)C(CC)Oc1cnc2ccc(Br)cc2c1 (stereo not drawn) [Compound 38] | 99% | 100% | 21% | – | – | – |
| CCC(Oc1cnc2ccc(Br)cc2c1)C(=O)NC(C)(C)CO (stereo not drawn) [Compound 39] | 33% | 0% | 21% | – | – | – |
| CCC(Oc1cnc2ccc(Cl)cc2c1)C(=O)NC(C)(C)C (stereo not drawn) [Compound 40] | – | – | – | 99% | 100% | 92% |
| C#CC(C)(C)NC(=O)C(CC)Oc1cnc2ccc(Cl)cc2c1 (stereo not drawn) [Compound 41] | 96% | 96% | 0% | – | – | – |
| CCC(Oc1cnc2ccc(Cl)cc2c1)C(=O)NC(C)(C)CO (stereo not drawn) [Compound 42] | 0% | 0% | 0% | – | – | – |
| CCC(Oc1cnc2ccc(Br)cc2c1)C(=O)NC1(C(=O)OC)CC1 (stereo not drawn) [Compound 44] | 0% | 0% | 0% | – | – | – |
| CCC(Oc1cnc2ccc(F)cc2c1)C(=O)NC(C)(C)C (stereo not drawn) [Compound 45] | – | – | – | 98% | 42% | 84% |
| CCC(Oc1cnc2ccc(F)cc2c1)C(=O)NC1(C#N)CC1 (stereo not drawn) [Compound 46] | 0% | 0% | 0% | – | – | – |
| C#CC(C)(C)NC(=O)C(CC)Oc1cnc2ccc(F)cc2c1 (stereo not drawn) [Compound 47] | 70% | 20% | 0% | – | – | – |
